Measured values published in patent US5004833A, “KS-501 derivatives” (Kyowa Hakko Kogyo Co., Ltd., priority 1988, dated 1991).
Values after ≈ are worked out from the molar mass of the structure shown. Like-named read-outs stand apart in the source and are kept apart here.

System: washed platelet
Experiment: Effect on platelet aggregation (washed platelets stimulated with thrombin or platelet-activating factor, Born method)
Assay type: cell-based, white rabbit
Details: for IC50: Oryctolagus cuniculus, 0.05 h, 3 min incubation, 37° C.
Description: 8.5 vol of blood was collected from the carotid arteries of a white rabbit, and placed in a tube containing 1.5 vol of a citrate-dextrose solution (71 mM citric acid, 85 mM sodium citrate and 111 mM dextrose). The thus obtained blood was centrifuged at 200 xg for 15 minutes to obtain platelet-rich plasma (PRP). This PRP was centrifuged at 650×g for 10 minutes to obtain platelet precipitates. After washing with Ca^++ -free Tyrode's solution containing 2 mM ethylenebis(oxyethylenenitrilo)tetraacetic acid (hereinafter referred to as EGTA), the platelet precipitates were centrifuged again at 650×g for 10 minutes for washing. The resulting platelet precipitates were suspended in Ca^++ -free Tyrode's solution containing 0.25% bovine serum albumin to reach a density of 5×10^8 cells/ml. After allowing to stand for about 30 minutes, 1 mM CaCl2 or 1 mM EGTA was added to the suspension of the washed platelet. The mixture was allowed to stand for further 30 minutes, and then platelet aggregation was measured.
The platelet aggregation was measured with an aggregometer, ACGRETEC TE-500 (product of Erma Optical Co., Ltd.) to which the Born method was applied.
First, 10 μl portions of a test compound solution were added to 0.2 ml portions of the suspension of the washed platelet, while stirring at 1,000 rpm and at 37° C. After incubation at 37° C. for 3 minutes, 10 μl portions of a stimulating agent thrombin (final concentration : 0.05 U/ml) or platelet-activating factor (final concentration: 10^-10 M) were added thereto, respectively to initiate the reaction. The rate of platelet aggregation inhibition of the test compound were calculated from the maximum aggregation rate obtained by the use of the test compound and the maximum aggregation rate obtained by use of only the solvent used for dissolving the test compound, according to the following equation. The effect of the test compound was determined as the drug concentration which gave the inhibition rate of 50%. [formula] A: maximum aggregation rate in use of the solvent alone B: maximum aggregation rate in use of the test compound

**Q.** CCCCCCCc1cc(O)cc(OC(=O)c2c(O)cc(O)cc2CCCCCCC)c1 [Compound 4] was tested. Which IC50 (stimulating agent platelet-activating factor, final concentration 10^-10 M, read-out: IC50 (platelet aggregation inhibition, stimulating agent platelet-activating factor)) did it give?
**A.** 45 µg/mL (≈ 102 µM)

**Q.** And the IC50 (Platelet, stimulating agent thrombin, final concentration 0.05 U/ml, read-out: IC50 (platelet aggregation inhibition, stimulating agent thrombin))?
**A.** 72 µg/mL (≈ 163 µM)

**Q.** What about the “inhibition of platelet aggregation, in words” value (stimulated with thrombin and platelet-activating factor) of the same compound?
**A.** inhibited platelet aggregation
